Measurements published in US6967196B1, “Sulfonamide compounds and uses thereof” (Bristol-Myers Squibb Company, priority 1999, dated 2005).
Like-named read-outs stand apart in the source and are kept apart here.

Tested on: amyloid β production in transfected H4 (human neuroglioma) cells stably expressing APP constructs
Assay: In vitro cell-based assay of inhibitors of amyloid β production (ELISA)
Conditions: transfected H4 cells stably expressing APP constructs, approximately 16 hours incubation, amyloid β in medium by ELISA, read-out: ACTIVITY (IC50, inhibition of amyloid β production)
Procedure, shortened: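 Test agents are screened at 10-100 μM for about 16 hours on cells stably expressing wild-type or variant APP. Secreted Aβ is measured by ELISA and compared with control-treated cells.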

Row | SMILES | IC50 (Homo sapiens, 16 h) [nM] | IC50 [nM]
1 | C[C@H](COC(=O)N1CCCC1)N(c1cc(F)ccc1F)S(=O)(=O)c1ccc(Cl)cc1 [Example 1238, 4-Chloro-N-(2,5-difluorophenyl)-N-[2-[[[pyrrolidin-1-yl]carbonyl]oxy]-R-1-methylethyl]benzenesulfonamide] | ≤ 25 | 
2 | C[C@H](COC(=O)NCCCn1ccnc1)N(c1cc(F)ccc1F)S(=O)(=O)c1ccc(Cl)cc1 [Example 1239, 4-Chloro-N-(2,5-difluorophenyl)-N-[2-[[N′-[3-(1H-imidazol-1-yl)propylamino]carbonyl]oxy]-(R)-1-methylethyl]benzenesulfonamide] |  | ≤ 25
3 | C[C@H](COC(=O)NCCCn1ccnc1)N(c1cc(Cl)ccc1Cl)S(=O)(=O)c1ccc(Cl)cc1 [Example 1240, 4-Chloro-N-(2,5-dichlorophenyl)-N-[2-[[N′-[3-(1H-imidazol-1-yl)propylamino]carbonyl]oxy]-(R)-1-methylethyl]benzenesulfonamide] |  | ≤ 25
4 | C[C@H](COC(=O)N1CCC[C@H]1CO)N(c1cc(Cl)ccc1Cl)S(=O)(=O)c1ccc(Cl)cc1 [Example 1241] |  | ≤ 25
5 | C[C@H](COC(=O)NCCN1CCCCC1)N(c1cc(Cl)ccc1Cl)S(=O)(=O)c1ccc(Cl)cc1 [Example 1242] |  | ≤ 25
6 | C[C@H](COC(=O)N1CCCC1)N(c1cc(Cl)ccc1F)S(=O)(=O)c1ccc(Cl)cc1 [Example 1243, 4-Chloro-N-(2-fluoro-5-chlorophenyl)-N-[2-[[[pyrrolidin-1-yl]carbonyl]oxy]-(R)-1-methylethyl]benzenesulfonamide] | ≤ 25 | 
7 | C[C@H](COC(=O)NCCCn1ccnc1)N(c1cc(Cl)ccc1F)S(=O)(=O)c1ccc(Cl)cc1 [Example 1244, 4-Chloro-N-(2-fluoro-5-chlorophenyl)-N-[2-[[N′-[3-(1H-imidazol-1-yl)propylamino]carbonyl]oxy]-(R)-1-methylethyl]benzenesulfonamide] |  | ≤ 25
8 | C[C@H](COC(=O)NCCc1c[nH]cn1)N(c1cc(Cl)ccc1F)S(=O)(=O)c1ccc(Cl)cc1 [Example 1245, 4-Chloro-N-(2-fluoro-5-chlorophenyl)-N-[2-[[N′-[2-(1H-imidazol-4-yl)ethylamino]carbonyl]oxy]-(R)-1-methylethyl]benzenesulfonamide] |  | ≤ 25
9 | C[C@H]([C@@H](C)OC(=O)NCCCn1ccnc1)N(c1cc(Cl)ccc1CO)S(=O)(=O)c1ccc(Cl)cc1 [Example 1246, 4-Chloro-N-[5-chloro-2-(hydroxymethyl)phenyl]-N-[2-[[N′-[3-(1H-imidazol-1-yl)propylamino]carbonyl]oxy]-(1R)-(2R)-dimethylethyl]benzenesulfonamide] |  | ≤ 25
10 | CCN(CCCn1ccnc1)C(=O)OC[C@@H](C)N(c1cc(Cl)ccc1Cl)S(=O)(=O)c1ccc(Cl)cc1 [Example 1247, 4-Chloro-N-(2,5-dichlorophenyl)-N-[2-[[[N′-[3-(1H-imidazol-1-yl)propyl]-N′-ethylamino]carbonyl]oxy]-(R)-1-methylethyl]benzenesulfonamide] |  | ≤ 25
11 | C[C@H](COC(=O)NCCCn1cnnn1)N(c1cc(Cl)ccc1Cl)S(=O)(=O)c1ccc(Cl)cc1 [Example 1248, 4-Chloro-N-(2,5-dichlorophenyl)-N-[2-[[N′-[3-(1H-tetrazol-1-yl)propylamino]carbonyl]oxy]-(R)-1-methylethyl]benzenesulfonamide] |  | ≤ 25
12 | C[C@H](COC(=O)N(C)CCO)N(c1cc(Cl)ccc1Cl)S(=O)(=O)c1ccc(Cl)cc1 [Example 1249, 4-Chloro-N-(2,5-dichlorophenyl)-N-[2-[[N′-[2-(hydroxyethyl)-N′-methylamino]carbonyl]oxy]-(R)-1-methylethyl]benzenesulfonamide] |  | ≤ 25
13 | C[C@H](COC(=O)N(C)CCCn1ccnc1)N(c1cc(Cl)ccc1Cl)S(=O)(=O)c1ccc(Cl)cc1 [Example 1250, 4-Chloro-N-(2,5-dichlorophenyl)-N-[2-[[[N′-[3-(1H-imidazol-1-yl)propyl]-N′-methylamino]carbonyl]oxy]-(R)-1-methylethyl]benzenesulfonamide] |  | ≤ 25
14 | C[C@H](COC(=O)N(CCCn1ccnc1)CC1CC1)N(c1cc(Cl)ccc1CO)S(=O)(=O)c1ccc(Cl)cc1 [Example 1251, 4-Chloro-N-[5-chloro-2-(hydroxymethyl)phenyl]-N-[2-[[[N′-[3-(1H-imidazol-1-yl)propyl]-N′-cyclopropylmethylamino]carbonyl]oxy]-(R)-1-methylethyl]benzenesulfonamide] |  | ≤ 25
15 | CC(C)N(CCCn1ccnc1)C(=O)OC[C@@H](C)N(c1cc(Cl)ccc1CO)S(=O)(=O)c1ccc(Cl)cc1 [Example 1252, 4-Chloro-N-[5-chloro-2-(hydroxymethyl)phenyl]-N-[2-[[[N′-[3-(1H-imidazol-1-yl)propyl]-N′-(2-methylethyl)amino]carbonyl]oxy]-(R)-1-methylethyl]benzenesulfonamide] |  | ≤ 25
16 | CC([C@@H]1CCCN1CCS(C)(=O)=O)N(c1cc(Cl)ccc1Cl)S(=O)(=O)c1ccc(Cl)cc1 (stereo partly drawn) [Example 1253] |  | 100 to 500
17 | CC([C@@H]1CCCN1)N(c1cc(Cl)ccc1Cl)S(=O)(=O)c1ccc(Cl)cc1 (stereo partly drawn) [Example 1254] |  | > 500
18 | COC(=O)[C@@H](NC(=O)CC[C@@H](C)N(c1cc(Cl)ccc1F)S(=O)(=O)c1ccc(Cl)cc1)C(C)C [Example 1257, (R)-4-Chloro-N-(5-chloro-2-fluorophenyl)-N-[4-[N-(S)-[1-(methoxycarbonyl)-2-methylpropyl]amino]-1-methyl-4-oxobutyl]benzenesulfonamide] |  | 50 to 100
19 | COC(=O)[C@H](CC(C)C)NC(=O)CCCC[C@@H](C)N(c1cc(Cl)ccc1F)S(=O)(=O)c1ccc(Cl)cc1 [Example 1258, (R)-4-Chloro-N-(5-chloro-2-fluorophenyl)-N-[6-[N-(S)-[1-(methoxycarbonyl)-3-methylbutyl]amino]-1-methyl-6-oxohexyl]benzenesulfonamide] |  | ≤ 25
20 | CC(C)C[C@H](NC(=O)CCCC[C@@H](C)N(c1cc(Cl)ccc1F)S(=O)(=O)c1ccc(Cl)cc1)C(=O)O [Example 1259, (R)-4-Chloro-N-(5-chloro-2-fluorophenyl)-N-[6-[N-(S)-[1-(carboxy)-3-methylbutyl]amino]-1-methyl-6-oxohexyl]benzenesulfonamide] |  | ≤ 25
21 | COC(=O)[C@@H](NC(=O)CCCC[C@@H](C)N(c1cc(Cl)ccc1F)S(=O)(=O)c1ccc(Cl)cc1)C(C)C [Example 1261, (R)-4-Chloro-N-(5-chloro-2-fluorophenyl)-N-[6-[N-(S)-[1-(methoxycarbonyl)-2-methylpropyl]amino]-1-methyl-6-oxohexyl]benzenesulfonamide] |  | ≤ 25
22 | CC(C)[C@H](NC(=O)CCCC[C@@H](C)N(c1cc(Cl)ccc1F)S(=O)(=O)c1ccc(Cl)cc1)C(=O)O [Example 1262, (R)-4-Chloro-N-(5-chloro-2-fluorophenyl)-N-[6-[N-(S)-[1-(carboxy)-2-methylpropyl]amino]-1-methyl-6-oxohexyl]benzenesulfonamide] |  | ≤ 25
23 | CC(C)C[C@H](NC(=O)CCCC[C@@H](C)N(c1cc(Cl)ccc1F)S(=O)(=O)c1ccc(Cl)cc1)C(=O)O [Example 1263, (R)-4-Chloro-N-(5-chloro-2-fluorophenyl)-N-[6-[N-(S)-[1-(carboxy)-3-methylbutyl]amino]-1-methyl-6-oxohexyl]benzenesulfonamide] |  | 25 to 50
24 | COC(=O)[C@@H](NC(=O)CCC[C@@H](C)N(c1cc(Cl)ccc1F)S(=O)(=O)c1ccc(Cl)cc1)C(C)C [Example 1264, (R)-4-Chloro-N-(5-chloro-2-fluorophenyl)-N-[5-[N-(S)-[1-(methoxycarbonyl)-2-methylpropyl]amino]-1-methyl-6-oxopentyl]benzenesulfonamide] |  | 100 to 500
25 | COC(=O)[C@H](CC(C)C)NC(=O)CCC[C@@H](C)N(c1cc(Cl)ccc1F)S(=O)(=O)c1ccc(Cl)cc1 [Example 1265, (R)-4-Chloro-N-(5-chloro-2-fluorophenyl)-N-[6-[N-(S)-[1-(methoxycarbonyl)-3-methylbutyl]amino]-1-methyl-5-oxopentyl]benzenesulfonamide] |  | 50 to 100
26 | COC(=O)[C@H](NC(=O)CCC[C@@H](C)N(c1cc(Cl)ccc1F)S(=O)(=O)c1ccc(Cl)cc1)C(C)C [Example 1266, (R)-4-Chloro-N-(5-chloro-2-fluorophenyl)-N-[5-[N-(R)-[1-(methoxycarbonyl)-2-methylpropyl]amino]-1-methyl-5-oxopentyl]benzenesulfonamide] |  | ≤ 25
27 | COC(=O)[C@@H](CC(C)C)NC(=O)CCC[C@@H](C)N(c1cc(Cl)ccc1F)S(=O)(=O)c1ccc(Cl)cc1 [Example 1267, (R)-4-Chloro-N-(5-chloro-2-fluorophenyl)-N-[5-[N-(R)-[1-(methoxycarbonyl)-3-methylbutyl]amino]-1-methyl-5-oxopentyl]benzenesulfonamide] |  | 25 to 50
28 | CC(C)[C@H](NC(=O)CCC[C@@H](C)N(c1cc(Cl)ccc1F)S(=O)(=O)c1ccc(Cl)cc1)C(=O)O [Example 1268, (R)-4-Chloro-N-(5-chloro-2-fluorophenyl)-N-[5-[N-(S)-[1-(carboxy)-2-methylpropyl]amino]-1-methyl-5-oxopentyl]benzenesulfonamide] |  | 100 to 500
29 | CC(C)[C@@H](NC(=O)CCC[C@@H](C)N(c1cc(Cl)ccc1F)S(=O)(=O)c1ccc(Cl)cc1)C(=O)O [Example 1270, (R)-4-Chloro-N-(5-chloro-2-fluorophenyl)-N-[5-[N-(R)-[1-(carboxy)-2-methylpropyl]amino]-1-methyl-5-oxopentyl]benzenesulfonamide] |  | 25 to 50
30 | CC(C)C[C@@H](NC(=O)CCC[C@@H](C)N(c1cc(Cl)ccc1F)S(=O)(=O)c1ccc(Cl)cc1)C(=O)O [Example 1271, (R)-4-Chloro-N-(5-chloro-2-fluorophenyl)-N-[5-[N-(R)-[1-(carboxy)-3-methylbutyl]amino]-1-methyl-5-oxopentyl]benzenesulfonamide] |  | 50 to 100
